# Measurements: patent US20130245029A1, “TREATMENT OF CANCER WITH TOR KINASE INHIBITORS” (SIGNAL PHARMACEUTICALS, LLC, priority 2012, published 2013)
# Legend:
# [1] = test system: ETS overexpressing Ewing sarcoma cell lines; experiment: Soft agar colony formation (clonogenic growth inhibition); type: cell-based; conditions: 3 weeks in culture, ETS positive versus ETS negative cell lines, FIG. 1
# Method: FIG. 1 provides a clonogenic growth inhibition assay for Compound 1 with ETS positive and ETS negative cell lines. […] Soft Agar Colony Formation. A solid layer of 1% agarose is used to coat each well of a 96-well plate. After allowing two hours to cool, five hundred Ewing's cells are suspended in a 33% agarose (10% solution), 33% media with 2×FBS and 33% cell suspension in quadruplicate wells of a 96-well plate. Cells are treated with or without TOR kinase inhibitor in an upper layer of media. Every three days, the media is exchanged for fresh TOR kinase inhibitor containing media. After 3-weeks in culture, images are taken on a 10× objective lens and colonies are counted for each condition.
# [2] = test system: Ewing's sarcoma cell lines (ETS positive cells); experiment: DNA damage COMET assay; type: cell-based; conditions: 48 hours treatment, FIG. 2
# Text: DNA Damage Assays: COMET Assay.
smiles,measurement,setting,value
"CCN1C(=O)CNc2ncc(-c3ccc(-c4nc[nH]n4)nc3C)nc21 [Compound 1, 1-ethyl-7-(2-methyl-6-(1H-1,2,4-triazol-3-yl)pyridin-3-yl)-3,4-dihydropyrazino[2,3-b]pyrazin-2(1H)-one]",sensitivity of colony formation to inhibition,[1],more sensitive
same,DNA damage (COMET tail moments),[2],potentiates DNA damage
